One data set relates to Stern. The data set can be described thus: Heme adaptation, Stern test. Type of data set: cell-based. As for the experimental part:
(§1) Methods for obtaining the data shown in Tables 1 and 2 are described herein.
(§2) With reference to Table 1, “Luminescence” refers to the raw luminescence value obtained in a luminomter. “Control (82.5 nm)” refers to the luminescence value obtained from heme at 82.5 nM as a positive control in the same plate as the experimental. “% lum” is the percentage of luminescence induced by the compound as compared to the heme control in the same plate. […] All of these assays are described in the application. […] “N/T” indicates the test was not performed.

The test system of data set [1] is response regulator HssR. The data set can be described thus: HssR dependence, Stern test. Type of data set: cell-based. As for the experimental part: as §1, §2
Data set [2] concerns hrtAB-driven expression of the xylE reporter gene. The data set can be described thus: XylE reporter assay (hrtAB promoter-xylE), Newman. It is filed as cell-based, Staphylococcus aureus. The settings on record: for XylE (0.5): level of XylE induction at 0.5 uM of the compound; for XylE (5.0): level of XylE induction at 5.0 uM of the compound; for XylE (50.0): level of XylE induction at 50.0 uM of the compound; for XylE (0.05): level of XylE induction at 0.05 uM of the compound. The essentials:
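S. aureus carrying hrtAB promoter-xylE fusion in pOS1 grown O/N at 37° C in TSB with chloramphenicol, lysed with lysostaphin. Lysate XylE activity read as 2-hydroxymuconic semialdehyde formation from 0.2 mM pyrocatechol (A375, every minute for 30 minutes), normalised to BCA protein; unit = 1 nmol/min/mg at 30° C.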
(In a reporter assay the amount or activity of a reporter protein is the signal.)

The subject of data set [3] is response regulator HssR. The data set can be described thus: HssR dependence of XylE inducing activity, Newman. To be noted: whether XylE inducing activity requires HssR. Type of data set: cell-based, Staphylococcus aureus. As for the experimental part:
With reference to Table 1, “Luminescence” refers to the raw luminescence value obtained in a luminomter. “Control (82.5 nm)” refers to the luminescence value obtained from heme at 82.5 nM as a positive control in the same plate as the experimental. “% lum” is the percentage of luminescence induced by the compound as compared to the heme control in the same plate. […] All of these assays are described in the application. […] “N/T” indicates the test was not performed. […]
S. aureus strains harboring the appropriate reporter construct were inoculated into 500 μl of TSB containing 10 μg/ml chloramphenicol in 1.5 ml tubes. Cultures were grown O/N at 37° C. with shaking. Bacteria were pelleted by centrifugation and spent medium was aspirated. The pellet was washed once with 500 μl of 20 mM potassium phosphate, pH 7.6, and resuspended in 150 μl of 100 mM potassium phosphate buffer, pH 8.0, 10% (v/v) acetone, 25 μg/ml lysostaphin. After 20 minute incubation at 37° C. and 5 minute incubation on ice, samples were centrifuged at 20,000 g for 30 minutes at 4° C. 1-10 μl of supernatant was added to a 96-well plate and 200 μl of 100 mM potassium phosphate, pH 8.0, 0.2 mM pyrocatechol was added to each well. Formation of 2-hydroxymuconic semialdehyde was tracked by measuring the absorbance at 375 nm every minute for 30 minutes on a Varian MP 50 microplate reader. Protein concentration in samples was determined by BCA (Pierce). One unit of specific activity of XylE in a sample is defined as the formation of 1 nmol of 2-hydroxymuconic semialdehyde per minute per milligram of cellular protein at 30° C. (Chien, Y., Manna, A. C., Projan, S. J., and Cheung, A. L. 1999, “SarA, a global regulator of virulence determinants in Staphylococcus aureus, binds to a conserved motif essential for sar-dependent gene regulation. J. Biol. Chem. 274, 37169-37176).

Data set [4] has as its system HssRS-dependent hrtAB expression. The data set can be described thus: Luminescence-based assay to monitor HssRS-dependent hrtAB expression (phrtABlux reporter), Newman. It is filed as cell-based, Staphylococcus aureus. To be noted: for activation at 0.0825 µM: Staphylococcus aureus, NEWMAN, read-out: % Lumi, luminescence induced by the compound compared to the heme control (82.5 nM) in the same plate; for activation at 0.0825 µM / Luminescence: Newman; for Luminescence: raw luminescence value obtained in a luminometer. The essentials: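 S. aureus Newman wild type or ΔhssR carrying a hrtAB promoter–luxCDABE reporter (phrtABlux), grown in TSB with 10 μg/ml chloramphenicol at 37 °C. Light output read against 82.5 nM heme as the in-plate positive control. Activity given as % of heme-induced luminescence.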

Data set [5] is described as follows: Solubility of heme in solution. It is filed as physicochemical. The settings on record: concentrations above this are insoluble.

Experimental findings from US8263642B2, “Antimicrobial compounds and methods of use thereof” (Vanderbilt University, priority 2008, dated 2012) are described below.

For `Oc1c(-c2cc(-c3ccco3)[nH]n2)ccc2ccccc12` [drawing 131], the “Heme Adapt” value in the data set on Stern was “−”. In the data set on response regulator HssR [1], the “HssR Dep” value is given as “−”.
For `COC(NC(=O)Nc1nc2ccccc2s1)(C(F)(F)F)C(F)(F)F`, in data set [2], the “XylE (0.5)” value is 4, the “XylE (5.0)” value was found to be 0.04 and the “XylE (50.0)” value turned out to be 7. Further, in the data set with response regulator HssR [3], the “HssR Dep” value is “−”. Further, in data set [4], the activation at 0.0825 µM is 280% and the Luminescence is 1747.
Regarding `Cc1ccc(CSCc2ccc(C(=O)NCc3ccc(F)cc3)o2)cc1`, in data set [2], the “XylE (0.5)” value is 0, the “XylE (5.0)” value came to 3 and the “XylE (50.0)” value is given as 5. The “HssR Dep” value with response regulator HssR [3] is given as “+”. In data set [4], the activation at 0.0825 µM came to 198% and the Luminescence was 1653.
As for `Brc1ccc(-c2nc(NCc3ccccc3)c3ccccc3n2)cc1`, in data set [2], the “XylE (0.05)” value was found to be 1, the “XylE (0.5)” value turned out to be 1, the “XylE (5.0)” value was 0.5 and the “XylE (50.0)” value is reported as 0.2. In addition, in the data set on response regulator HssR [3], the “HssR Dep” value is given as “−”. In addition, the Luminescence in data set [4] turned out to be 4302.
On to `Cc1ccc(-c2nnc(SCC(=O)NC3CCCC3)nc2-c2ccc(C)cc2)cc1`, for which, in data set [2], the “XylE (0.5)” value worked out at 1, the “XylE (5.0)” value was determined as 0.5 and the “XylE (50.0)” value amounted to 0.04. Also, in the data set with response regulator HssR [3], the “HssR Dep” value is listed as “−”. Besides, in data set [4], the activation at 0.0825 µM was 855% and the Luminescence came to 1658.
Consider `O=C(N/N=C/c1ccc(-c2cccc(C(F)(F)F)c2)o1)C1COc2ccccc2O1` (centres unmarked) [drawing 134], for which the “Heme Adapt” value in the data set with Stern is reported as “−”. Moreover, in the data set on response regulator HssR [1], the “HssR Dep” value was “−”.
As to `C=CC1=C(C)c2cc3[n-]c(cc4[n-]c(cc5nc(cc1n2)C(C)=C5C=C)c(C)c4CCC(=O)O)c(CCC(=O)O)c3C.[Fe+2]` [heme, reference compound], the “soluble concentration in solution” value in data set [5] was no more than 30 µM. For the same molecule, the “light production on solid medium” value in data set [4] (S. aureus containing phrtABlux, solid medium without or with 4 μM heme) is recorded as “generated light exclusively upon heme exposure”. Moreover, in data set [4] (S. aureus wildtype containing phrtABlux, liquid media with or without heme), the “luminescence in liquid media” value is reported as “robust luminescence”. Also, the increase in luminescence in data set [4] (exposure of S. aureus to 3 μM heme, preliminary results) is recorded as 100 fold. In data set [4] (heme-exposed wildtype harboring phrtABlux vs wildtype plux and ΔhssR phrtABlux, preliminary results), the “increase in luminescence over negative control strains” value is 100 fold.
As to `CCOC(=O)c1c(NC(=O)c2ccccc2)sc(C(C)=O)c1-c1ccccc1`, in data set [2], the “XylE (0.05)” value stood at 0.03, the “XylE (0.5)” value is listed as 1, the “XylE (5.0)” value is 0.3 and the “XylE (50.0)” value was 0.08. For the same molecule, the “HssR Dep” value in the data set with response regulator HssR [3] is “−”. Besides, in data set [4], the activation at 0.0825 µM amounted to 109% and the Luminescence is recorded as 312.
Take `CCCN1C(=O)/C(=C2/C(=O)N(CC(=O)Nc3ccc(Cl)cc3)c3ccccc32)SC1=S` [drawing 28]: in data set [2], the “XylE (0.05)” value was found to be 1, the “XylE (0.5)” value is on record as 0.06, the “XylE (5.0)” value is on record as 0.07 and the “XylE (50.0)” value was determined as 0.02. In addition, the “HssR Dep” value in the data set with response regulator HssR [3] is recorded as “−”. Moreover, in data set [4], the Luminescence is 1600.
Regarding `CC1=NN(c2ccccc2)C(=O)/C1=N\Nc1ccccc1O`, in data set [2], the “XylE (0.05)” value amounted to 0.07, the “XylE (0.5)” value was 0.05, the “XylE (5.0)” value is recorded as 0.2 and the “XylE (50.0)” value is 1. Further, the “HssR Dep” value in the data set on response regulator HssR [3] is “−”. For the same molecule, in data set [4], the activation at 0.0825 µM was 60.3% and the Luminescence was 1848.
For the molecule `Cc1ccc(NS(=O)(=O)c2ccc3c(c2)Cc2cc(S(=O)(=O)Nc4ccc(C)cc4)ccc2-3)cc1` [drawing 135], the “Heme Adapt” value in the data set with Stern was “+”. In addition, the “HssR Dep” value in the data set with response regulator HssR [1] is given as “+”.
For the molecule `CC(NC(=O)C1(c2ccccc2)CCCC1)C1COc2ccccc2O1` (centres unmarked) [drawing 132], the “Heme Adapt” value in the data set with Stern is “+”. The “HssR Dep” value in the data set on response regulator HssR [1] is “+”.
Consider `COc1ccc(CCNC(=O)C(=O)Nc2cccc(Cl)c2)cc1OC`, for which, in data set [2], the “XylE (0.05)” value worked out at 1, the “XylE (0.5)” value is 0.5, the “XylE (5.0)” value was found to be 0.8 and the “XylE (50.0)” value is 5. Moreover, the “HssR Dep” value with response regulator HssR [3] is recorded as “−”. In data set [4], the activation at 0.0825 µM came out at 355% and the Luminescence came out at 2830.
Take `O=C(Nc1ccc(NC(=O)c2cccs2)c(Cl)c1)c1cccs1`: in data set [2], the “XylE (0.05)” value is given as 0.05, the “XylE (0.5)” value turned out to be 0.05, the “XylE (5.0)” value came out at 0.9 and the “XylE (50.0)” value was determined as 0.06. Further, the “HssR Dep” value with response regulator HssR [3] is listed as “−”. Moreover, in data set [4], the activation at 0.0825 µM stood at 111% and the Luminescence stood at 406.
On to `Cc1nc(Nc2ccc(Oc3ccccc3)cc2)c2c(C)c(C)sc2n1`, for which, in data set [2], the “XylE (0.5)” value was determined as 0.6, the “XylE (5.0)” value is given as 0.09 and the “XylE (50.0)” value came out at 0. The “HssR Dep” value in the data set on response regulator HssR [3] was “−”. In data set [4], the Luminescence was 1627.
For the molecule `COc1ccccc1NC1=C/C(=N\S(=O)(=O)c2ccc(Br)cc2)c2ccccc2C1=O` [drawing 136], the “Heme Adapt” value in the data set on Stern was “+”. For the same molecule, the “HssR Dep” value in the data set with response regulator HssR [1] is on record as “+”.
`O=C(N/N=C/c1ccc(-c2ccc(Br)cc2)o1)C1COc2ccccc2O1` (centres unmarked) [drawing 133]: in the data set with Stern, the “Heme Adapt” value is “+”. For the same molecule, in the data set on response regulator HssR [1], the “HssR Dep” value was “+”.
